Columns and labels:
[1] = tested on: VEEV-Luc (TC-83) and VEEV (TC-83); assay: microbe, parasite or virus in culture; assay type: cell-based; settings: Venezuelan equine encephalitis virus, Vero, read-out: IC50, inhibition of VEEV
TAK1 = TAK1 (Homo sapiens, UniProt O43318); assay: Kinase profiling (Reaction Biology): TAK1
LIMK1 [2] = molecular target: T1, LIMK1 (Homo sapiens, UniProt P53667); assay: Kinase profiling (Reaction Biology): LIMK1
Target sequence in this assay (P53667 whole entry): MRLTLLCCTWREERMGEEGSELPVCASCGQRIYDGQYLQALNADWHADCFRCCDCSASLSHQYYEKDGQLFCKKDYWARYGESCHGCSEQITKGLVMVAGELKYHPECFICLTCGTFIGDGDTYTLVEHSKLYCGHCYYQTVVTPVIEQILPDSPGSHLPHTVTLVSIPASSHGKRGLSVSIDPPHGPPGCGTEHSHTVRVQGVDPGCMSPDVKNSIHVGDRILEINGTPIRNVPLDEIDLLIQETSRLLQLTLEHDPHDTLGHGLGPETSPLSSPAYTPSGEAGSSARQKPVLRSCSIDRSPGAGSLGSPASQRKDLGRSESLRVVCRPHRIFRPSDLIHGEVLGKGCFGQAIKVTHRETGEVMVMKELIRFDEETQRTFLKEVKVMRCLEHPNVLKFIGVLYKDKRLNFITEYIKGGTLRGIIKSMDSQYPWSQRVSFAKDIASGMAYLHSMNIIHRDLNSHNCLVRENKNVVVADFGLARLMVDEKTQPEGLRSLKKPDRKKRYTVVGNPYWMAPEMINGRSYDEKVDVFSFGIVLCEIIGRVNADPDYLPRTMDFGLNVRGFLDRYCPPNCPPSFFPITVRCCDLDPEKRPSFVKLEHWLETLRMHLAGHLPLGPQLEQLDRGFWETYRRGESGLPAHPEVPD

TBK1 = TBK1 (Homo sapiens, UniProt Q9UHD2); assay: Kinase profiling (Reaction Biology): TBK1
IGF1R = IGF1R (Homo sapiens, UniProt P08069); assay: Kinase profiling (Reaction Biology): IGF1R
PLK2 = PLK2 (Homo sapiens, UniProt Q9NYY3); assay: Kinase profiling (Reaction Biology): PLK2
CAMK2b = CAMK2b (Homo sapiens, UniProt Q13554); assay: Kinase profiling (Reaction Biology): CAMK2b
STK16 = STK16 (Homo sapiens, UniProt O75716); assay: Kinase profiling (Reaction Biology): STK16
RSK1 = RSK1 (Homo sapiens, UniProt Q15418); assay: Kinase profiling (Reaction Biology): RSK1
EGFR = EGFR (Homo sapiens, UniProt P00533); assay: Kinase profiling (Reaction Biology): EGFR
ABL1 = ABL1 (Homo sapiens, UniProt P00519); assay: Kinase profiling (Reaction Biology): ABL1
p-cofilin = assay: Intracellular p-cofilin staining and flow cytometry in CEM-SS T cells; settings: 100 μM, 1 h, 0 h: 20.6%
BTK = BTK (Homo sapiens, UniProt Q06187); assay: Kinase profiling (Reaction Biology): BTK
GSK3b = GSK3b (Homo sapiens, UniProt P49841); assay: Kinase profiling (Reaction Biology): GSK3b
c-Kit = c-Kit (Homo sapiens, UniProt P10721); assay: Kinase profiling (Reaction Biology): c-Kit
DAPK1 = DAPK1 (Homo sapiens, UniProt P53355); assay: Kinase profiling (Reaction Biology): DAPK1
HIV-1(Env) [3] = assay: 2-LTR circles by real-time PCR (nuclear migration) in CEM-SS T cells; assay type: cell-based
HIV-1(Vpr-β-lactamase) = assay: BlaM-Vpr-based viral entry assay; assay type: cell-based; settings: 100 μM; CEM-SS T cells
CK1d = CK1d (Homo sapiens, UniProt P48730); assay: Kinase profiling (Reaction Biology): CK1d
JNK3 = JNK3 (Homo sapiens, UniProt P53779); assay: Kinase profiling (Reaction Biology): JNK3
STK33 = STK33 (Homo sapiens, UniProt Q9BYT3); assay: Kinase profiling (Reaction Biology): STK33
RVFV-Luc (MP12) = assay: microbe, parasite or virus in culture; assay type: cell-based; settings: Rift Valley fever virus, Vero, 24 h, read-out: IC50, inhibition of RVFV
LIMK1 [4] = molecular target: T1, LIMK1; assay: LIMK1 biochemical assay, 10-dose IC50; parameters: purified from insect cells; His; purchased Reaction Biology Corporation, Malvern, PA; host or cells: insect cells (coexpressed with ROCK1); settings: purified LIMK1; 10 μM ATP, 1 μM cofilin; ≥2 in vitro kinase assays; read-out: LIMK1 Biochemical Inhibition IC50
From the text: We selected R10015 from the potential LIMK inhibitors for further detailed mechanistic studies. The synthesis, purification, and biochemical characterization of R10015 are described in Materials and Methods below and shown in Fig. 3. We performed a cell-free assay to measure R10015 inhibition of the LIM domain kinase using purified human LIMK1 and its substrate, cofilin. […] We also performed profiling of R10015 against a panel of 62 kinases (Table 2).
Biochemical LIMK1 assays for all inhibitors were carried out by Reaction Biology Corporation, Malvern, PA, and followed the protocols described on its website. […] Reactions were carried out at 10 μM ATP, 1 μM substrate (cofilin), and 50 nM LIMK1 (final concentrations). […] The reagents were as follows: base reaction buffer, 20 mM HEPES (pH 7.5), 10 mM MgCl2, 1 mM EGTA, 0.02% Brij 35, 0.02 mg/ml bovine serum albumin (BSA), 0.1 mM Na3VO4, 2 mM dithiothreitol (DTT), 1% DMSO. No additional cofactors were added to the reaction mixture. The reaction procedures were as follows. (i) The indicated substrate was prepared in freshly made base reaction buffer. (ii) Any required cofactors were delivered to the substrate solution described above. (iii) The indicated kinase was delivered into the substrate solution and gently mixed. (iv) The compounds in DMSO were delivered into the kinase reaction mixture. (v) [^33P]ATP (final specific activity, 0.01 μCi/μl) was delivered into the reaction mixture to initiate the reaction. […] (viii) The filters were washed extensively in 0.1% phosphoric acid.

ALK = ALK (Homo sapiens, UniProt Q9UM73); assay: Kinase profiling (Reaction Biology): ALK
HIV-1(Env) [5] = assay type: cell-based
CD4 = assay: Surface staining of CD4 on CEM-SS T cells; assay type: cell-based, human; settings: 100 μM
LRRK2 (G2019S) = LRRK2 (G2019S) (Homo sapiens, UniProt Q5S007, G2019S); assay: Kinase profiling (Reaction Biology): LRRK2 (G2019S)
Sequence of LRRK2 (G2019S) (Q5S007 whole entry G2019S): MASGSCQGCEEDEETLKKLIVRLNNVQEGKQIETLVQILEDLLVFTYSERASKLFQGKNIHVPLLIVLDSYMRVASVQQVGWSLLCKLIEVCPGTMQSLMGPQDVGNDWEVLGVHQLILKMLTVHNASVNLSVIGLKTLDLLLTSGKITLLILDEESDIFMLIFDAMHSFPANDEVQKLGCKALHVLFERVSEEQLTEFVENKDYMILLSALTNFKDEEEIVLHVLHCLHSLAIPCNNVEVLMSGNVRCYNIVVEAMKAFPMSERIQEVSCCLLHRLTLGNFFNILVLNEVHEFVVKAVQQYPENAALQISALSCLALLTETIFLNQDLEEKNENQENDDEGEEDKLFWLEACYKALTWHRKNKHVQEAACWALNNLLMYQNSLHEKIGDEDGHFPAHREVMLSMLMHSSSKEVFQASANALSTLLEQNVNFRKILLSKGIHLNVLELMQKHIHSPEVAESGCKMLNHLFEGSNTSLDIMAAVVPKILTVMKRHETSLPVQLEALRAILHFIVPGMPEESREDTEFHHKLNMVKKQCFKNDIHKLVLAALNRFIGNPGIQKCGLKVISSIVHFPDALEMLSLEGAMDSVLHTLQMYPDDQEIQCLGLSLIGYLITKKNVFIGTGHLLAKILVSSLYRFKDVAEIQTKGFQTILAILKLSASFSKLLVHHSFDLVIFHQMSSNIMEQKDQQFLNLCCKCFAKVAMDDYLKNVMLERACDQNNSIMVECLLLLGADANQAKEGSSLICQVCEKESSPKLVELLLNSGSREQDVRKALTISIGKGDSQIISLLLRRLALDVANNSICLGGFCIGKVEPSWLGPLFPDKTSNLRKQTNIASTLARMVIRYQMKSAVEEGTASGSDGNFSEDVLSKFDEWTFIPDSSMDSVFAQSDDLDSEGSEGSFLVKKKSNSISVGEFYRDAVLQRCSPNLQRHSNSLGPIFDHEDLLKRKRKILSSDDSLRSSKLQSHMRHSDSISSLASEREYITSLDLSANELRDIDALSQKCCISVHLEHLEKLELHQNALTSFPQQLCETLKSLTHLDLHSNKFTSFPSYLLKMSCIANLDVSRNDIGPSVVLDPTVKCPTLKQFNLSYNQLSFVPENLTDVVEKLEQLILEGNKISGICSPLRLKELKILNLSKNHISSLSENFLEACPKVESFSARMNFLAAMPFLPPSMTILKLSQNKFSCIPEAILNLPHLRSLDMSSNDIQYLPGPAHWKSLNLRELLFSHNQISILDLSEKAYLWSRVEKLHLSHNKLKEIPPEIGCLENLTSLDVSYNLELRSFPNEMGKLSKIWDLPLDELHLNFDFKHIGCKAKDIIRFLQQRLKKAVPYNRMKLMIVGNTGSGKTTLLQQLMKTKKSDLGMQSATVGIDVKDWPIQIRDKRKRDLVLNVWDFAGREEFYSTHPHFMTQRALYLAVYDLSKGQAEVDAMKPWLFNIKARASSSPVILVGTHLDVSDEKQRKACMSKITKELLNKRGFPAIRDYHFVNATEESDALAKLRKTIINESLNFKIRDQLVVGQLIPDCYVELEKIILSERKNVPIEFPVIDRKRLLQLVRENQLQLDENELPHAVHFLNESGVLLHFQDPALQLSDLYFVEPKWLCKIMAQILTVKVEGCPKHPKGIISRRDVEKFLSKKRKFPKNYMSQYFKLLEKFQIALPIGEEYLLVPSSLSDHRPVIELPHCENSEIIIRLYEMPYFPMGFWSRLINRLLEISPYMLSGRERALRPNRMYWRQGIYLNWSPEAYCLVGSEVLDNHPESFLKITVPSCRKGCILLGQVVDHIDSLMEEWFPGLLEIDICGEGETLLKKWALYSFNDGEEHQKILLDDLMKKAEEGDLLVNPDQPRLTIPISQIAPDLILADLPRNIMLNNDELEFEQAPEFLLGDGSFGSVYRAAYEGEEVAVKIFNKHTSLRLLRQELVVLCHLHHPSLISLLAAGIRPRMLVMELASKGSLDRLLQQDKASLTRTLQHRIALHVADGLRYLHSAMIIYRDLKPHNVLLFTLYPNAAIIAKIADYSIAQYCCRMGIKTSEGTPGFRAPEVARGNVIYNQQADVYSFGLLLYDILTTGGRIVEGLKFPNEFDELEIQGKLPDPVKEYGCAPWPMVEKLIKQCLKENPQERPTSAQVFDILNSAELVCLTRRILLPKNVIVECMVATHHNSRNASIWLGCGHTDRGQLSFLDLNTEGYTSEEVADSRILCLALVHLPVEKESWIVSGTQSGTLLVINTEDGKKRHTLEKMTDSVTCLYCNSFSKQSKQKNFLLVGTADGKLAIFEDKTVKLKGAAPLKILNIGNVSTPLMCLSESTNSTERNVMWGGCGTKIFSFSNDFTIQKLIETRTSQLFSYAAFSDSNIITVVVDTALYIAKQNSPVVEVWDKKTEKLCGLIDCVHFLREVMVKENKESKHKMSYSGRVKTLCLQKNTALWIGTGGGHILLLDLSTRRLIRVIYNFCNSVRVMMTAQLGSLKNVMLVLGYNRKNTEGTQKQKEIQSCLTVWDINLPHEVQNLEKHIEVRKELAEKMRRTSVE

Sequence of GSK3b (P49841 whole entry): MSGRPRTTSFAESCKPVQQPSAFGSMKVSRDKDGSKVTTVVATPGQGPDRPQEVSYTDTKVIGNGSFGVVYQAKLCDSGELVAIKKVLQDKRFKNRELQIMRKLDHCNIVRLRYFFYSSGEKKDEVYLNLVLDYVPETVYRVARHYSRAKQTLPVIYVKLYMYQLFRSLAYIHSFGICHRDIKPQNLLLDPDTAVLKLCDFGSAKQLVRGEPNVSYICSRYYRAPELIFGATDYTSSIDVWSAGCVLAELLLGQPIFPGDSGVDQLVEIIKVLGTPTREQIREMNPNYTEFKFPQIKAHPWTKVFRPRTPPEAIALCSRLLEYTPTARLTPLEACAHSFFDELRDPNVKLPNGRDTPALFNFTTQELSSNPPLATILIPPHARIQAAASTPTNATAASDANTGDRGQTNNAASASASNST
Sequence of CK1d (P48730 whole entry): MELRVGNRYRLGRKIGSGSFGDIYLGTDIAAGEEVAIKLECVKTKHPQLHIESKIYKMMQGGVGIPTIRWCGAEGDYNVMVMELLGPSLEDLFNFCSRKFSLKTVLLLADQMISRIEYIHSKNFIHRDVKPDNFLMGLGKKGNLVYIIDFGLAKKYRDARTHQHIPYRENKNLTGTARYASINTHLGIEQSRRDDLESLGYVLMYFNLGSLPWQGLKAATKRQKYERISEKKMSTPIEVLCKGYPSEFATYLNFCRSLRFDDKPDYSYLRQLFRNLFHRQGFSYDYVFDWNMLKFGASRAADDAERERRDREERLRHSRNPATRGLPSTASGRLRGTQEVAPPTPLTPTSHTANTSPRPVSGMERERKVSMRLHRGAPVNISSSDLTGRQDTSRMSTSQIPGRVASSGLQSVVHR
Sequence of STK16 (O75716 whole entry): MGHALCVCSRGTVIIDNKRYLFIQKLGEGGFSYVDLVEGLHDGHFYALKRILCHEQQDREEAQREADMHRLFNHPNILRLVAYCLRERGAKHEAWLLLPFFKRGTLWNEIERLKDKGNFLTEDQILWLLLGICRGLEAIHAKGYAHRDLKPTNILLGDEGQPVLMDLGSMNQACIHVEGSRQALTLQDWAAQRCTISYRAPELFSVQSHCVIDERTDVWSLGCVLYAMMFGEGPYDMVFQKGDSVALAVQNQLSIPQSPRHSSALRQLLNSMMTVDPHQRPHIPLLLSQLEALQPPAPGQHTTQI
Sequence of CAMK2b (Q13554 whole entry): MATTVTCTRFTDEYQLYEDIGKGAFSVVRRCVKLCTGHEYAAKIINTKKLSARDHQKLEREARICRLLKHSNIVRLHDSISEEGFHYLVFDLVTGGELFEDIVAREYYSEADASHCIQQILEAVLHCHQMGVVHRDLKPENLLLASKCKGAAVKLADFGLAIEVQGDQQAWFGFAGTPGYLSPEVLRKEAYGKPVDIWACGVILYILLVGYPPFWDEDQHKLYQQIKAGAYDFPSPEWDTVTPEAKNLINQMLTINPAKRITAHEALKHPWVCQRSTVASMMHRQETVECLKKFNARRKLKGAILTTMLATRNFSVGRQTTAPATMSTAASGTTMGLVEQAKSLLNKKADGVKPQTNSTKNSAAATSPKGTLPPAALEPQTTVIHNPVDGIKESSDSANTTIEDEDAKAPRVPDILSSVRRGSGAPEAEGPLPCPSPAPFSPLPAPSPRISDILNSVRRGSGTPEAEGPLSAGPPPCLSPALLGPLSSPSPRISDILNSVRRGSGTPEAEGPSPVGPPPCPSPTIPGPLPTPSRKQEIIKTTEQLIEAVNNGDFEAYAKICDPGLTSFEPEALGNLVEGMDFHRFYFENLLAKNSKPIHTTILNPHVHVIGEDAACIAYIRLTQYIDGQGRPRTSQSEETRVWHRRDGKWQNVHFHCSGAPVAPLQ

## COC(=O)c1ccc2[nH]c(C3CCN(c4ncnc5[nH]cc(Cl)c45)CC3)nc2c1 [Compound R10015, Methyl 2-(1-(5-chloro-7H-pyrrolo[2,3-d]pyrimidin-4-yl)piperidin-4-yl)-1H-benzo[d]imidazole-5-carboxylate]
[1]
  IC50: ~5 µM
TAK1
  activity at 1 µM: 82.4%
LIMK1 [2]
  activity at 1 µM: 6.4%
TBK1
  activity at 1 µM: 82%
IGF1R
  activity at 1 µM: 90%
PLK2
  activity at 1 µM: 103%
CAMK2b
  activity at 1 µM: 90.8%
STK16
  activity at 1 µM: 48.6%
RSK1
  activity at 1 µM: 47.2%
EGFR
  activity at 1 µM: 93.2%
ABL1
  activity at 1 µM: 89.2%
p-cofilin
  P-cofilin, lower gate (cells staining low): 80%
BTK
  activity at 1 µM: 90.2%
GSK3b
  activity at 1 µM: 67.8%
c-Kit
  activity at 1 µM: 81.3%
DAPK1
  activity at 1 µM: 87.8%
HIV-1(Env) [3]
  viral nuclear migration (2-LTR circles): inhibited
HIV-1(Vpr-β-lactamase)
  viral entry, HIV-1(Vpr-β-lactamase): did not significantly inhibit
CK1d
  activity at 1 µM: 85%
JNK3
  activity at 1 µM: 85.7%
STK33
  activity at 1 µM: 56.5%
RVFV-Luc (MP12)
  IC50: ~12.5 µM
LIMK1 [4]
  IC50: 0.038 ± 0.005 µM
ALK
  activity at 1 µM: 95.5%
HIV-1(Env) [5]
  viral late DNA synthesis: inhibited
CD4; 1 h
  surface expression of CD4: did not alter
CD4; prolonged treatment 4 h
  surface density of CD4: slightly decreased
LRRK2 (G2019S)
  activity at 1 µM: 6.7%
LRRK2 (G2019S); read-out: inhibition of LRRK2
  inhibition at 1 µM: ≥ 90%

— article PMC5469273, “Discovery of Novel Small-Molecule Inhibitors of LIM Domain Kinase for Inhibiting HIV-1” (Journal of Virology, 2017)
